Assay results from PMC9851200, “Multiparameter phenotypic screening for endogenous TFEB and TFE3 translocation identifies novel chemical series modulating lysosome function” (Autophagy, 2022).
“Also recorded” adds a separate entry of the source. Read-outs that look alike come from different tables or passages of the source.

Experiments:
endogenous TFEB = test: TFEB nuclear translocation, immunocytochemistry high-content imaging; assay type: cell-based
SH-SY5Y cells [1] = tested on: SH-SY5Y cells
endogenous TFE3 = test: TFE3 nuclear translocation, immunocytochemistry high-content imaging; assay type: cell-based
SH-SY5Y cells [2] = conditions: human
SH-SY5Y cells [3] = conditions: human; remark: listed apart in the source
SH-SY5Y cells [4] = test: Nuclear count from microscopy images (cellular growth and toxicity); conditions: PKIS2 primary screening
SH-SY5Y cells [5] = test: AK (adenylate kinase) release ToxiLight cytotoxicity assay; conditions: for AK: PKIS2 primary screening
SH-SY5Y cells [6] = test: Chemotype enrichment analysis of PKIS2 primary screen hit categories; conditions: PKIS2 primary screening, hit category
[7] = PKIS2 primary screening, DQ Red BSA intensity
[8] = PKIS2 primary screening, DQ Red BSA spot count

| Nuclear Count (SH-SY5Y cells [2]; SH-SY5Y cells, 24 h, 1 µM) | AK (SH-SY5Y cells [3]; SH-SY5Y cells, 24 h, 1 µM) | Structure (SMILES) | TFEB % (endogenous TFEB) | DQ Intensity (SH-SY5Y cells [1]) | DQ Spot (SH-SY5Y cells [1]) | TFE3 % (endogenous TFE3) | also measured |
| --- | --- | --- | --- | --- | --- | --- | --- |
| 87.30 | 85.75 | CC(=O)Nc1n[nH]c2ncc(-c3ccccc3)cc12 [SB-548492] | 4.73% | 81.01 | 101.49 | 13.46% |  |
| 111.13 | 122.64 | CCCC(=O)Nc1n[nH]c2ncccc12 [SB-601436] | 6.83% | 119.21 | 109.95 | 11.89% |  |
| 121.57 | 86.32 | Nc1n[nH]c2cnc(-c3ccccc3)cc12 [SB-642124] | 10.03% | 94.71 | 98.20 | 5.79% |  |
| 73.65 | 115.51 | O=C(Nc1n[nH]c2nc(-c3ccccc3)c(Br)cc12)C1CC1 [SB-708998] | 9.86% | 93.68 | 102.39 | 9.05% |  |
| 127.54 | 67.50 | O=C(Nc1n[nH]c2nc(-c3ccccc3)ccc12)C1CC1 [SB-708999] | 6.34% | 102.03 | 111.17 | 15.72% |  |
| 105.81 | 104.06 | COc1cccc(-c2ccc3c(NC(=O)C4CC4)n[nH]c3n2)c1 [SB-710903] | 9.14% | 82.25 | 92.88 | 8.53% |  |
| 104.88 | 73.81 | COc1ccccc1-c1ccc2c(NC(=O)C3CC3)n[nH]c2n1 [SB-711239] | 3.98% | 73.89 | 92.69 | 10.01% |  |
| 102.12 | 88.20 | O=C(Nc1n[nH]c2nc(-c3ccccc3O)ccc12)C1CC1 [SB-711880] | 4.35% | 70.14 | 92.53 | 12.20% |  |
| 98.09 | 71.30 | O=C(Nc1n[nH]c2cc(-c3cccs3)ccc12)C1CC1 [SB-731284] | 12.38% | 119.55 | 107.15 | 10.84% |  |
| 67.01 | 91.62 | CCN1CCN(CCCC(=O)Nc2n[nH]c3nc(-c4ccc(O)cc4)c(Br)cc23)CC1 [SB-731579] | 17.61% | 115.44 | 103.09 | 6.82% |  |
| 130.18 | 126.66 | O=C(Nc1n[nH]c2cc(-c3ccsc3)ccc12)C1CC1 [SB-732932] | 11.50% | 63.56 | 84.83 | 8.30% |  |
| 125.04 | 112.72 | O=C(Nc1n[nH]c2nc(-c3cccs3)c(Br)cc12)C1CC1 [SB-735297] | 7.45% | 103.59 | 106.97 | 10.45% |  |
| 95.28 | 75.61 | O=C(Nc1n[nH]c2cc(-c3cccc(F)c3)ccc12)C1CC1 [SB-735464] | 2.08% | 82.14 | 107.31 | 14.17% |  |
| 105.01 | 109.29 | O=C(Nc1n[nH]c2cc(-c3ccoc3)ccc12)C1CC1 [SB-738481] | 6.46% | 82.31 | 113.23 | 12.05% |  |
| 130.73 | 80.83 | O=C(Nc1n[nH]c2nc(-c3nccs3)c(Br)cc12)C1CC1 [SB-742251] | 12.43% | 109.29 | 109.81 | 5.59% |  |
| 69.12 | 69.40 | O=C(Nc1n[nH]c2nc(-c3nccs3)c(Br)cc12)C1CCCC1 [SB-742609] | 8.05% | 95.35 | 108.28 | 7.93% |  |
| 111.90 | 91.49 | O=C(Nc1n[nH]c2nc(-c3cccs3)c(Br)cc12)C1CCCC1 [SB-743341] | 21.21% | 118.79 | 104.54 | 12.29% |  |

| Nuclear Count (SH-SY5Y cells [2]; SH-SY5Y cells, 24 h, 1 µM) | AK (SH-SY5Y cells [3]; SH-SY5Y cells, 24 h, 1 µM) | Structure (SMILES) | TFEB % (endogenous TFEB) | DQ Intensity (SH-SY5Y cells [1]) | DQ Spot (SH-SY5Y cells [1]) | TFE3 % (endogenous TFE3) | also measured |
| --- | --- | --- | --- | --- | --- | --- | --- |
| 91.66 | 67.98 | COc1cccc(C2=C(Nc3ccc(Cl)c(C(=O)O)c3)C(=O)NC2=O)c1 [UNC10225038A] | 4.97% | 120.07 | 110.06 | 15.59% |  |
|  |  | COc1ccccc1C1=C(Nc2cccc(O)c2)C(=O)NC1=O [UNC10225043A] | 8.14% | 136.47 | 112.45 | 13.36% | Nuclear Count (SH-SY5Y cells [2]; 24 h, 1 µM): 83.80; AK (SH-SY5Y cells [3]; 24 h, 1 µM): 125.63 |
| 88.09 | 106.60 | O=C1NC(=O)C(c2ccccc2)=C1Nc1cccc(O)c1 [UNC10225065A] | 4.40% | 107.12 | 107.03 | 9.48% |  |
| 99.00 | 134.26 | O=C1NC(=O)C(c2ccc(Cl)cc2)=C1Nc1ccc(O)cc1 [UNC10225090A] | 11.08% | 92.30 | 94.51 | 11.41% |  |
| 114.88 | 96.89 | O=C1NC(=O)C(c2ccccc2Cl)=C1Nc1cccc(Cl)c1 [UNC10225092A] | 6.93% | 81.85 | 94.92 | 13.82% |  |
|  |  | Cn1cnc2c(N)ncnc21 [UNC10225123A] | 4.18% | 105.88 | 110.82 | 9.16% | Nuclear Count (SH-SY5Y cells [2]): 110.43; AK (SH-SY5Y cells [3]): 74.79 |
|  |  | O=c1cc(N2CCOCC2)nc2n(Cc3cccc(Cl)c3Cl)ccn12 [UNC10225167A] |  |  |  |  | TFEB % (endogenous TFEB; PKIS2 primary screening): 3.69%; DQ Intensity (SH-SY5Y cells [1]; PKIS2 primary screening): 91.40; DQ Spot (SH-SY5Y cells [1]; PKIS2 primary screening): 112.20; TFE3 % (endogenous TFE3; PKIS2 primary screening): 15.96%; Nuclear Count (SH-SY5Y cells [4]): 101.24; AK (SH-SY5Y cells [3]): 151.05 |
|  |  | CN(C)CC(O)COc1ccc(Nc2nccc(-c3cnn4nc(N5CCOCC5)ccc34)n2)cc1 (stereo not drawn) [UNC10225197A] | 3.40% | 107.33 | 110.97 | 12.57% | AK (SH-SY5Y cells [5]): 142.32; Nuclear Count (SH-SY5Y cells [2]): 103.35 |
|  |  | CC(C)(CN)c1nc(-c2ccc(Cl)c(O)c2)c(-c2ccncc2)[nH]1.O=C(O)C(F)(F)F [UNC10225206A] |  |  |  |  | TFEB % (endogenous TFEB; PKIS2 primary screening): 8.68%; DQ Intensity (SH-SY5Y cells [1]; [7]): 164.60; DQ Spot (SH-SY5Y cells [1]; [8]): 127.42; Outcome (SH-SY5Y cells [6]): DQ Only; AK (SH-SY5Y cells [5]): 94.20; TFE3 % (endogenous TFE3; PKIS2 primary screening): 7.79%; Nuclear Count (SH-SY5Y cells [2]): 76.70 |
|  |  | CC(C)(CN)c1nc(-c2ccc(Cl)c(O)c2)c(-c2ccncc2)[nH]1.O=C(O)C(F)(F)F [UNC10225206B] |  |  |  |  | TFEB % (endogenous TFEB; PKIS2 primary screening): 5.00%; DQ Intensity (SH-SY5Y cells [1]; [7]): 150.27; DQ Spot (SH-SY5Y cells [1]; [8]): 119.19; Outcome (SH-SY5Y cells [6]): DQ Only; AK (SH-SY5Y cells [5]): 116.08; TFE3 % (endogenous TFE3; PKIS2 primary screening): 3.59%; Nuclear Count (SH-SY5Y cells [2]): 109.20 |
|  |  | CCCCc1nn2ncccc2c1-c1ccnc(NC2CC2)n1 [UNC10225247A] |  |  |  |  | TFEB % (endogenous TFEB; PKIS2 primary screening): 2.59%; DQ Intensity (SH-SY5Y cells [1]; PKIS2 primary screening): 77.25; DQ Spot (SH-SY5Y cells [1]; PKIS2 primary screening): 98.14; AK (SH-SY5Y cells [5]): 99.47; TFE3 % (endogenous TFE3; PKIS2 primary screening): 6.63%; Nuclear Count (SH-SY5Y cells [2]): 77.00 |
|  |  | CC(C)Oc1ccc2c(-c3ccnc(Nc4ccc(N5CCN(C)CC5)cc4)n3)cnn2n1 [UNC10225414A] |  |  |  |  | TFEB % (endogenous TFEB; PKIS2 primary screening): 3.20%; DQ Intensity (SH-SY5Y cells [1]; PKIS2 primary screening): 74.33; DQ Spot (SH-SY5Y cells [1]; PKIS2 primary screening): 86.73; AK (SH-SY5Y cells [5]): 109.44; TFE3 % (endogenous TFE3; PKIS2 primary screening): 8.69%; Nuclear Count (SH-SY5Y cells [2]): 127.68 |
|  |  | CCCCc1nn2ncccc2c1-c1ccnc(Nc2ccc(N3CCN(C)CC3)cc2)n1 [UNC10225453A] |  |  |  |  | TFEB % (endogenous TFEB; PKIS2 primary screening): 12.73%; DQ Intensity (SH-SY5Y cells [1]; PKIS2 primary screening): 158.78; DQ Spot (SH-SY5Y cells [1]; PKIS2 primary screening): 101.42; AK (SH-SY5Y cells [5]): 108.81; TFE3 % (endogenous TFE3; PKIS2 primary screening): 20.14%; Nuclear Count (SH-SY5Y cells [2]): 74.87 |
|  |  | COc1cc2nccc(Nc3ccc(Oc4ccccc4)cc3)c2cc1OC.Cl [UNC10225483A] |  |  |  |  | TFEB % (endogenous TFEB; PKIS2 primary screening): 23.88%; DQ Intensity (SH-SY5Y cells [1]; [7]): 58.49; DQ Spot (SH-SY5Y cells [1]; [8]): 52.29; Outcome (SH-SY5Y cells [6]): LYSO TOXIC; AK (SH-SY5Y cells [5]): 74.22; TFE3 % (endogenous TFE3; PKIS2 primary screening): 50.12%; Nuclear Count (SH-SY5Y cells [4]): 95.56 |
|  |  | CN1CCN(Cc2cccc(-c3ccc4c(Nc5ccc(Oc6ccccc6)cc5)ccnc4c3)c2)CC1 [UNC10225484A, reference compound] |  |  |  |  | TFEB % (endogenous TFEB; PKIS2 primary screening): 9.01%; TFEB translocation (in words) (endogenous TFEB; SH-SY5Y, 24 h treatment): some TFEB and TFE3 translocation; also recorded: modest TFEB and 3 translocation at 2 µM; DQ Intensity (SH-SY5Y cells [1]; [7]): 129.44; DQ Spot (SH-SY5Y cells [1]; [8]): 68.80; DQ Red BSA spot count / active lysosome count (in words) (SH-SY5Y cells [1]; SH-SY5Y, 24 h treatment): reduction in active lysosome spots; also recorded: correlated drop in DQ Red BSA spot count; Outcome (SH-SY5Y cells [6]): LYSO TOXIC; AK (SH-SY5Y cells [5]): 84.86; Cellular toxicity (AK release and nuclear count, in words) (SH-SY5Y cells [5]; SH-SY5Y, 24 h treatment): no indication of cellular toxicity; TFE3 % (endogenous TFE3; PKIS2 primary screening): 42.01%; TFE3 translocation (in words) (endogenous TFE3; SH-SY5Y, 24 h treatment): some TFEB and TFE3 translocation; also recorded: modest TFEB and 3 translocation at 2 µM; Nuclear Count (SH-SY5Y cells [4]): 88.62 |
|  |  | COc1cc2ncnc(Nc3ccc4nc(-c5ccccc5)[nH]c4c3)c2cc1OC.Cl [UNC10225504A] |  |  |  |  | TFEB % (endogenous TFEB; PKIS2 primary screening): 2.24%; DQ Intensity (SH-SY5Y cells [1]; [7]): 98.46; DQ Spot (SH-SY5Y cells [1]; [8]): 113.89; Outcome (SH-SY5Y cells [6]): TFE3; AK (SH-SY5Y cells [5]): 94.98; TFE3 % (endogenous TFE3; PKIS2 primary screening): 30.79%; Nuclear Count (SH-SY5Y cells [4]): 107.73 |
